The subject of this assay is 266295-075-R-J1-PDC spheroid viability. Kind of assay: Anticancer human tumor 266295-075-R-J1-PDC patient-derived head and neck squamous carcinoma cell line growth inhibition [POLQ]. The following applies: spheroids with HUVEC and MSC; for viability, T/C: stronger effect = lower value; for IC50: curve of compound. How it is done: Multicellular complex tumor spheroid response to Polymerase (POL) inhibitors (novobiocin, ART-558, RP6685) in combination with a variety of drugs and investigational agents in selected tumor cell lines
The POL inhibitors (novobiocin, ART-558, and RP6685) were evaluated both individually and in combination with standard of care and investigational anticancer small molecules within a complex spheroid model of solid tumors. . Complex spheroids include a stromal component modeled by human endothelial cells (HUVEC) and fibroblasts modeled by human mesenchymal stem cells (MSCs). The concentration ranges selected for each drug and investigational agent were based upon clinically achievable concentrations if the clinical Cmax of the agent was known.
Compounds. The drugs and investigational agents: novobiocin (NSC847541), ART-558 (NSC835418), RP-6685 (NSC848927), peposertib (NSC802822), ceralasertib (NSC780249), elimusertib (NSC800525), camonsertib (NSC841442), AZD-1390 (NSC803789), olaparib (NSC753686), talazoparib (NSC767125), rucaparib (NSC756644), sotorasib (NSC818433), MRTX-1133 (NSC836407), SN-38 (NSC673596), topotecan (NSC609699), epotoside (NSC141540), doxorubicin (NSC123127), gemcitabine (NSC613327), 5-fluorouracil (NSC19893), paclitaxel (NSC125973), vemurafenib (NSC761431), MSA-2 (NSC828583), SN-011 (NSC837082), adavosertib (NSC754352), prexasertib (NSC758257), carboplatin (NSC241240) and oxaliplatin (NSC266046), were obtained from the National Cancer Institute (NCI) Developmental Therapeutics Program Chemical Repository (21). The FDA-approved anticancer drug set is available from the Developmental Therapeutics Program at https://dtp.cancer.gov/organization/dscb/obtaining/. […] The stock solutions were prepared in dimethyl sulfoxide (DMSO, Sigma-Aldrich, St. Louis, MO, cat. D2650), except for the platinum compounds which were prepared in saline (Quality Biological, Gaithersburg, MD, cat. 114-055-101), at 800-fold the tested concentration and stored at -70 degrees C prior to their use. All drugs and investigational agents were tested over a range starting from a high concentration at or near the clinical Cmax and decreasing in half-log increments. If the clinical Cmax for an agent had not been determined, the highest concentration tested was 10 microM, except for SN-38, which was tested at a high concentration of 1 microM.
Cell Culture. All cells were maintained in an incubator at 37 degrees C and 5% CO2 with 95% humidity. The PDC lines were cultured according to standard operating procedures established by the NCI PDMR (https://pdmr.cancer.gov). Table 3 of the manuscript, lists the cell lines along with the number of the three cell types plated to form the mct-spheroids and media for tumor cell growth. After thawing, all PDC lines, except 997537-175-T-J1-PDC and 415267-285-R-J2-PDC, were cultured in Matrigel-coated flasks prepared with a working solution of 1X Ham's F-12 nutrient mix, without supplementation (Thermo Fisher Scientific, cat. 11765054), 100 U/mL penicillin-streptomycin (Thermo Fisher Scientific, cat. 15140122), and 2.5% Matrigel (Corning Inc., Corning, NY, cat. 354248) for the first three passages. The two PDC lines 997537-175-T-J1-PDC and 415267-285-R-J2-PDC were cultured on uncoated flasks. The 857933-349-R-J2-PDC line was cultured in 6C/Colon 1B media containing advanced DMEM/F-12 (Thermo Fisher Scientific, cat. 12634028), 10 mM HEPES (Thermo Fisher Scientific, cat. 15630080), 1X GlutaMAX supplement (Thermo Fisher Scientific, cat. 35050061), 0.1 mg/mL primocin (InvivoGen, San Diego, CA, cat. ant-pm-2), 10% defined fetal bovine serum, heat inactivated (HyClone Laboratories Inc., Logan, UT, cat. SH30070.03HI), 50% L-WRN conditioned media (ATCC, cat. CRL-3276), 1.25 mM N-Acetyl-L-cysteine (Sigma-Aldrich, cat. A9165), 10 mM nicotinamide (Sigma-Aldrich, cat. N0636), 1X B-27 supplement (Thermo Fisher Scientific, cat. 17504044), 1X N-2 supplement (Thermo Fisher Scientific, cat. […]

Consider nine compounds from PubChem BioAssay AID1963853 (Molecular Pharmacology Branch, DTP, NCI, 2024).

SMILES strings stand for the structures. “And” between values parts separate entries of the source, which are not always exact repeats. Equal values may be shown once.
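Note: spheroids exposed to compounds for seven days before readout.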

Broadly, the viability, T/C is the ratio of treated to control. What is called IC50 is the point on the concentration scale where inhibition reaches its midpoint. Regarding `C=CC(=O)N1CCN(c2nc(=O)n(-c3c(C)ccnc3C(C)C)c3nc(-c4c(O)cccc4F)c(F)cc23)C(C)C1` (stereo not drawn), the IC50 is greater than 10 µM. Also, the viability, T/C (compound 0.0316 µM) is 85.8% and 77.5% and 104%. Besides, the viability, T/C (compound 0.1 µM) was 98.6% and 98% and 100%. For the same compound, where the note is “compound 0.316 µM”, the viability, T/C was 100% and 98.1% and 101%. Besides, the viability, T/C (compound 1 µM) is 104% and 95.8% and 112%. Also, where the note is “compound 3.16 µM”, the viability, T/C was 120% and 102% and 128%. The viability, T/C (compound 10 µM) is 110% and 129% and 93.2%.
With `C=CCn1c(=O)c2cnc(Nc3ccc(N4CCN(C)CC4)cc3)nc2n1-c1cccc(C(C)(C)O)n1`, the IC50 was greater than 1 µM. The viability, T/C (compound 0.00316 µM) was 98.5% and 82.4% and 90.4%. Further, the viability, T/C (compound 0.01 µM) is 86.6% and 97.5% and 99.7%. Further, the viability, T/C (compound 0.0316 µM) was 102% and 93.3% and 99.6%. The viability, T/C (compound 0.1 µM) was 127% and 114% and 84.3%. Further, the viability, T/C (compound 0.316 µM) was 83% and 93.8% and 89.9%. Further, the viability, T/C (compound 1 µM) is 70% and 70.6% and 63.8%.
As to `CC(=O)O[C@H]1C(=O)[C@@]2(C)[C@H]([C@H](OC(=O)c3ccccc3)[C@]3(O)C[C@H](OC(=O)[C@H](O)[C@@H](NC(=O)c4ccccc4)c4ccccc4)C(C)=C1C3(C)C)[C@]1(OC(C)=O)CO[C@@H]1C[C@@H]2O`, the IC50 is greater than 3 µM. Also, the viability, T/C (compound 0.00949 µM) was 76.7% and 71.7% and 79%. Moreover, for the setting “compound 0.03 µM”, the viability, T/C is 72.1% and 64.8% and 76%. The viability, T/C (compound 0.0949 µM) was 54.3% and 61.7% and 67.4%. Further, the viability, T/C (compound 0.3 µM) was 80.9% and 69.8% and 75%. The viability, T/C (compound 0.949 µM) is 73% and 75.7% and 70.2%. Where the note is “compound 3 µM”, the viability, T/C is 61.1% and 82% and 77.6%.
On to `CC(C)n1c(=O)n(C)c2cnc3cc(F)c(-c4ccc(OCCCN5CCCCC5)nc4)cc3c21`, for which the IC50 is greater than 10 µM. Moreover, where the note is “compound 0.0316 µM”, the viability, T/C is 127% and 94.5% and 93.5%. Moreover, the viability, T/C (compound 0.1 µM) is 74.1% and 94.9% and 97.8%. Also, where the note is “compound 0.316 µM”, the viability, T/C is 107% and 111% and 96.5%. In addition, the viability, T/C (compound 1 µM) was 100% and 92.8% and 103%. Besides, the viability, T/C (compound 3.16 µM) is 89.6% and 91.6% and 94.1%. In addition, the viability, T/C (compound 10 µM) is 70.6% and 64.5% and 76.9%.
In the case of `CC1COCCN1c1cc(-c2ccnn2C)c2ccnc(-c3ccn[nH]3)c2n1` (stereo not drawn), the IC50 was 0.965 µM and 1.85 µM and 2.43 µM. Further, the viability, T/C (compound 0.0316 µM) is 91% and 92.4% and 98.3%. For the same compound, where the note is “compound 0.1 µM”, the viability, T/C is 70.7% and 81.1% and 80.7%. Also, for the setting “compound 0.316 µM”, the viability, T/C was 62.5% and 67.2% and 69.4%. Besides, the viability, T/C (compound 1 µM) is 45.2% and 52.3% and 59.2%. For the same compound, for the setting “compound 3.16 µM”, the viability, T/C was 47.1% and 49% and 53.5%. Further, for the setting “compound 10 µM”, the viability, T/C was 36.6% and 36.9% and 32%.
`CC1COCCN1c1cc(C2(S(C)(=N)=O)CC2)nc(-c2ccnc3[nH]ccc23)n1` (stereo not drawn): the IC50 was greater than 10 µM. Further, the viability, T/C (compound 0.0316 µM) was 92.3% and 97.5% and 86.5%. Further, the viability, T/C (compound 0.1 µM) was 95.2% and 93.2% and 93.5%. Also, the viability, T/C (compound 0.316 µM) was 89.9% and 85.6% and 97.6%. Further, the viability, T/C (compound 1 µM) was 83.2% and 80% and 78.7%. Moreover, the viability, T/C (compound 3.16 µM) is 73.2% and 87.5% and 76.5%. Moreover, the viability, T/C (compound 10 µM) is 55.6% and 56% and 54.7%.
`CCCS(=O)(=O)Nc1ccc(F)c(C(=O)c2c[nH]c3ncc(-c4ccc(Cl)cc4)cc23)c1F`: the IC50 was greater than 10 µM. Further, where the note is “compound 0.0316 µM”, the viability, T/C is 123% and 120% and 97.3%. Besides, under “compound 0.1 µM”, the viability, T/C is 110% and 106% and 109%. Under “compound 0.316 µM”, the viability, T/C is 105% and 98.9% and 110%. Moreover, the viability, T/C (compound 1 µM) is 113% and 136% and 117%. Moreover, the viability, T/C (compound 3.16 µM) is 121% (2×) and 136%. The viability, T/C (compound 10 µM) was 141% and 162% and 187%.
In the case of `CC[C@@]1(O)C(=O)OCc2c1cc1n(c2=O)Cc2cc3c(CN(C)C)c(O)ccc3nc2-1`, the IC50 is greater than 0.1 µM. Also, for the setting “compound 0.000316 µM”, the viability, T/C was 80.3% and 92.4% and 96.2%. Also, under “compound 0.001 µM”, the viability, T/C is 96.8% and 98.5% and 96.1%. Further, the viability, T/C (compound 0.00316 µM) was 80.3% and 78.6% and 92.5%. Moreover, the viability, T/C (compound 0.01 µM) is 80.8% and 95.8% and 96.8%. Also, where the note is “compound 0.0316 µM”, the viability, T/C was 89.2% and 93.9% and 103%. Also, the viability, T/C (compound 0.1 µM) is 82.4% and 82.3% and 87.1%.
Take `CCc1c2c(nc3ccc(O)cc13)-c1cc3c(c(=O)n1C2)COC(=O)[C@]3(O)CC`: the concentration for half-maximal inhibition (IC50) was greater than 1 µM. Further, for the setting “compound 0.00316 µM”, the viability, T/C is 84.2% and 91.3% and 93.2%. The viability, T/C (compound 0.01 µM) is 77.4% and 78.1% and 89.5%. Besides, the viability, T/C (compound 0.0316 µM) is 71.7% and 92.1% and 88.6%. Further, under “compound 0.1 µM”, the viability, T/C was 87% (2×) and 97.7%. In addition, where the note is “compound 0.316 µM”, the viability, T/C is 95.2% and 104% and 109%. Moreover, the viability, T/C (compound 1 µM) is 71.8% (2×) and 91.9%.
